From patent US20230085307A1, “PYRIDAZINONE COMPOUND AND HERBICIDE” (NISSAN CHEMICAL CORPORATION, priority 2019, published 2023)

Columns and labels:
[1] = system: green foxtail; assay: Test Example 4: herbicidal effect by soil treatment (Table 19, symbol G); type: in vivo, green foxtail (Setaria viridis)
Summary of the method: (§1)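 Pre-emergence style soil spray: seeds under ~1.5 cm sterilized diluvial soil received a uniform coat of emulsion diluted to the predetermined herbicide amount. Greenhouse 25–30° C; readout at week three on previously defined criteria.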

[2] = system: late watergrass; assay: Test Example 1: herbicidal activity, application before weed generation under submerged conditions (Table 16, symbol A); type: in vivo, late watergrass (Echinochloa oryzicola)
Summary of the method: (§2)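 Emulsion formulation, water-diluted to set dose, was put onto the flooded surface (4 cm depth, alluvial soil) the same day weeds were sown and 2.5-leaf rice transplanted. After 3 weeks at 25-30 °C under glass, each species was rated 0 (≤5% kill) to 5 (≥90% kill).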

[3] = system: redroot pigweed; assay: Test Example 5: herbicidal effect by foliage application, plastic box (Table 20, symbol N); type: in vivo, redroot pigweed (Amaranthus retroflexus); details: foliage application
Summary of the method: (§3)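 Plants were sown into sterilized diluvial soil under about 1.5 cm cover and kept in a greenhouse at 25° C. to 30° C. Fourteen days on, foliage received an even spray of the diluted emulsion. Herbicidal or crop effect was judged three weeks afterwards.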

[4] = system: southern crabgrass; assay: Test Example 4: herbicidal effect by soil treatment (Table 19, symbol F); type: in vivo, southern crabgrass (Digitaria ciliaris)
Summary of the method: as §1

[5] = system: Japanese bulrush; assay: Test Example 1: herbicidal activity, application before weed generation under submerged conditions (Table 16, symbol B); type: in vivo, Japanese bulrush (Schoenoplectus juncoides)
Summary of the method: as §2

[6] = system: redroot pigweed; assay: Test Example 4: herbicidal effect by soil treatment (Table 19, symbol N); type: in vivo, redroot pigweed (Amaranthus retroflexus)
Summary of the method: as §1

[7] = system: Italian ryegrass; assay: Test Example 4: herbicidal effect by soil treatment (Table 19, symbol K); type: in vivo, Italian ryegrass (Lolium multiflorum)
Summary of the method: as §1

[8] = system: lambsquarters; assay: Test Example 5: herbicidal effect by foliage application, plastic box (Table 20, symbol O); type: in vivo, lambsquarters (Chenopodium album); details: foliage application
Summary of the method: as §3

[9] = system: blackgrass; assay: Test Example 4: herbicidal effect by soil treatment (Table 19, symbol J); type: in vivo, blackgrass (Alopecurus myosuroides)
Summary of the method: as §1

[10] = system: velvetleaf; assay: Test Example 4: herbicidal effect by soil treatment (Table 19, symbol M); type: in vivo, velvetleaf (Abutilon theophrasti)
Summary of the method: as §1

[11] = system: barnyard grass; assay: Test Example 3: herbicidal effect by foliage application, Wagner pot (Table 18, symbol H); type: in vivo, barnyard grass (Echinochloa crus-galli)
Summary of the method: (§4)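 Plants were sown in alluvial soil held under 0.1–0.5 cm standing water and grown 14 days in a greenhouse at 25–30 °C. An emulsifiable formulation, water-diluted to the set dose, was then sprayed onto the foliage, and effects were scored three weeks later using previously defined criteria.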

[12] = system: lambsquarters; assay: Test Example 4: herbicidal effect by soil treatment (Table 19, symbol O); type: in vivo, lambsquarters (Chenopodium album)
Summary of the method: as §1

[13] = system: velvetleaf; assay: Test Example 5: herbicidal effect by foliage application, plastic box (Table 20, symbol M); type: in vivo, velvetleaf (Abutilon theophrasti); details: foliage application
Summary of the method: as §3

[14] = system: Chinese sprangletop; assay: Test Example 3: herbicidal effect by foliage application, Wagner pot (Table 18, symbol D); type: in vivo, chinese sprangletop (Leptochloa chinensis)
Summary of the method: as §4

[15] = system: Italian ryegrass; assay: Test Example 5: herbicidal effect by foliage application, plastic box (Table 20, symbol K); type: in vivo, Italian ryegrass (Lolium multiflorum); details: foliage application
Summary of the method: as §3

[16] = system: barnyard grass; assay: Test Example 4: herbicidal effect by soil treatment (Table 19, symbol H); type: in vivo, barnyard grass (Echinochloa crus-galli)
Summary of the method: as §1

[17] = system: rice flat sedge; assay: Test Example 3: herbicidal effect by foliage application, Wagner pot (Table 18, symbol E); type: in vivo, rice flat sedge (Cyperus iria)
Summary of the method: as §4

[18] = system: wild oat; assay: Test Example 5: herbicidal effect by foliage application, plastic box (Table 20, symbol I); type: in vivo, wild oat (Avena fatua); details: foliage application
Summary of the method: as §3

[19] = system: chickweed; assay: Test Example 4: herbicidal effect by soil treatment (Table 19, symbol P); type: in vivo, common chickweed (Stellaria media)
Summary of the method: as §1

[20] = system: chickweed; assay: Test Example 5: herbicidal effect by foliage application, plastic box (Table 20, symbol P); type: in vivo, common chickweed (Stellaria media); details: foliage application
Summary of the method: as §3

[21] = system: wild oat; assay: Test Example 4: herbicidal effect by soil treatment (Table 19, symbol I); type: in vivo, wild oat (Avena fatua)
Summary of the method: as §1

[22] = system: persian speedwell; assay: Test Example 5: herbicidal effect by foliage application, plastic box (Table 20, symbol R); type: in vivo, Persian speedwell (Veronica persica); details: foliage application
Summary of the method: as §3

[23] = system: blackgrass; assay: Test Example 5: herbicidal effect by foliage application, plastic box (Table 20, symbol J); type: in vivo, blackgrass (Alopecurus myosuroides); details: foliage application
Summary of the method: as §3

[24] = system: barnyard grass; assay: Test Example 5: herbicidal effect by foliage application, plastic box (Table 20, symbol H); type: in vivo, barnyard grass (Echinochloa crus-galli); details: foliage application
Summary of the method: as §3

[25] = system: windgrass; assay: Test Example 4: herbicidal effect by soil treatment (Table 19, symbol L); type: in vivo, windgrass (Apera spica-venti)
Summary of the method: as §1

[26] = system: persian speedwell; assay: Test Example 4: herbicidal effect by soil treatment (Table 19, symbol R); type: in vivo, Persian speedwell (Veronica persica)
Summary of the method: as §1

[27] = system: windgrass; assay: Test Example 5: herbicidal effect by foliage application, plastic box (Table 20, symbol L); type: in vivo, windgrass (Apera spica-venti); details: foliage application
Summary of the method: as §3

[28] = system: oval-leafed pondweed; assay: Test Example 1: herbicidal activity, application before weed generation under submerged conditions (Table 16, symbol C); type: in vivo, oval-leafed pondweed (Monochoria vaginalis)
Summary of the method: as §2

[29] = system: green foxtail; assay: Test Example 5: herbicidal effect by foliage application, plastic box (Table 20, symbol G); type: in vivo, green foxtail (Setaria viridis); details: foliage application
Summary of the method: as §3

[30] = system: southern crabgrass; assay: Test Example 5: herbicidal effect by foliage application, plastic box (Table 20, symbol F); type: in vivo, southern crabgrass (Digitaria ciliaris); details: foliage application
Summary of the method: as §3

[31] = amount of applied herbicide 320 g/ha
[32] = 320 g/ha, evaluated three weeks after application
[33] = amount of applied herbicide 272 g/ha
[34] = 272 g/ha, three weeks after application

CCCC(=O)Oc1c(C)nn(C)c(=O)c1-c1c(-c2cccc(OC(C)(C)C)c2)sc2ccc(F)cc12 [2-224]
herbicidal effect on G: green foxtail [1, 31]: 0 (Herbicidal rate of 5% or less (almost no effect)) | Herbicidal effect on A: late watergrass (grade 0-5) ([2]; 320 g/ha applied herbicide): 5 (Herbicidal rate of 90% or more (almost completely withered)) | herbicidal effect on N: redroot pigweed (criteria 0-5) [3, 32]: 2 (Herbicidal rate of 20% or more and less than 40%) | herbicidal effect on F: southern crabgrass [4, 31]: 0 (Herbicidal rate of 5% or less (almost no effect)) | Herbicidal effect on B: Japanese bulrush (grade 0-5) ([5]; 320 g/ha applied herbicide): 0 (Herbicidal rate of 5% or less (almost no effect)) | herbicidal effect on N: redroot pigweed [6, 31]: 0 (Herbicidal rate of 5% or less (almost no effect)) | herbicidal effect on K: Italian ryegrass [7, 31]: 0 (Herbicidal rate of 5% or less (almost no effect)) | herbicidal effect on O: lambsquarters (criteria 0-5) [8, 32]: 3 (Herbicidal rate of 40% or more and less than 70%) | herbicidal effect on J: blackgrass [9, 31]: 0 (Herbicidal rate of 5% or less (almost no effect)) | herbicidal effect on M: velvetleaf [10, 31]: 0 (Herbicidal rate of 5% or less (almost no effect)) | herbicidal effect on H: barnyard grass [11, 31]: 4 (Herbicidal rate of 70% or more and less than 90%) | herbicidal effect on O: lambsquarters [12, 31]: 0 (Herbicidal rate of 5% or less (almost no effect)) | herbicidal effect on M: velvetleaf (criteria 0-5) [13, 32]: 3 (Herbicidal rate of 40% or more and less than 70%) | herbicidal effect on D: Chinese sprangletop [14, 31]: 4 (Herbicidal rate of 70% or more and less than 90%) | herbicidal effect on K: Italian ryegrass (criteria 0-5) [15, 32]: 0 (Herbicidal rate of 5% or less (almost no effect)) | herbicidal effect on H: barnyard grass [16, 31]: 0 (Herbicidal rate of 5% or less (almost no effect)) | herbicidal effect on E: rice flat sedge [17, 31]: 3 (Herbicidal rate of 40% or more and less than 70%) | herbicidal effect on I: wild oat (criteria 0-5) [18, 32]: 0 (Herbicidal rate of 5% or less (almost no effect)) | herbicidal effect on P: chickweed [19, 31]: 0 (Herbicidal rate of 5% or less (almost no effect)) | herbicidal effect on P: chickweed (criteria 0-5) [20, 32]: 5 (Herbicidal rate of 90% or more (almost completely withered)) | herbicidal effect on I: wild oat [21, 31]: 0 (Herbicidal rate of 5% or less (almost no effect)) | herbicidal effect on R: persian speedwell (criteria 0-5) [22, 32]: 5 (Herbicidal rate of 90% or more (almost completely withered)) | herbicidal effect on J: blackgrass (criteria 0-5) [23, 32]: 0 (Herbicidal rate of 5% or less (almost no effect)) | herbicidal effect on H: barnyard grass (criteria 0-5) [24, 32]: 3 (Herbicidal rate of 40% or more and less than 70%) | herbicidal effect on L: windgrass [25, 31]: 0 (Herbicidal rate of 5% or less (almost no effect)) | herbicidal effect on R: persian speedwell [26, 31]: 4 (Herbicidal rate of 70% or more and less than 90%) | herbicidal effect on L: windgrass (criteria 0-5) [27, 32]: 0 (Herbicidal rate of 5% or less (almost no effect)) | Herbicidal effect on C: oval-leafed pondweed (grade 0-5) ([28]; 320 g/ha applied herbicide): 0 (Herbicidal rate of 5% or less (almost no effect)) | herbicidal effect on G: green foxtail (criteria 0-5) [29, 32]: 1 (Herbicidal rate of 5% or more and less than 20%) | herbicidal effect on F: southern crabgrass (criteria 0-5) [30, 32]: 0 (Herbicidal rate of 5% or less (almost no effect))

COc1cc(F)ccc1-c1sc2ccccc2c1-c1c(O)c(C)nn(C)c1=O [1-055]
herbicidal effect rating, G: green foxtail [1, 33]: 5 (Herbicidal rate of 90% or more (almost completely withered)) | Herbicidal effect on A: late watergrass (grade 0-5) ([2]; 272 g/ha applied herbicide): 4 (Herbicidal rate of 70% or more and less than 90%) | herbicidal effect grade, N: redroot pigweed [3, 34]: 3 (Herbicidal rate of 40% or more and less than 70%) | herbicidal effect rating, F: southern crabgrass [4, 33]: 2 (Herbicidal rate of 20% or more and less than 40%) | Herbicidal effect on B: Japanese bulrush (grade 0-5) ([5]; 272 g/ha applied herbicide): 0 (Herbicidal rate of 5% or less (almost no effect)) | herbicidal effect rating, N: redroot pigweed [6, 33]: 5 (Herbicidal rate of 90% or more (almost completely withered)) | herbicidal effect rating, K: Italian ryegrass [7, 33]: 3 (Herbicidal rate of 40% or more and less than 70%) | herbicidal effect grade, O: lambsquarters [8, 34]: 2 (Herbicidal rate of 20% or more and less than 40%) | herbicidal effect rating, J: blackgrass [9, 33]: 3 (Herbicidal rate of 40% or more and less than 70%) | herbicidal effect rating, M: velvetleaf [10, 33]: 0 (Herbicidal rate of 5% or less (almost no effect)) | herbicidal effect on H (barnyard grass), rating 0-5 ([11]; 272 g/ha): 5 (Herbicidal rate of 90% or more (almost completely withered)) | herbicidal effect rating, O: lambsquarters [12, 33]: 4 (Herbicidal rate of 70% or more and less than 90%) | herbicidal effect grade, M: velvetleaf [13, 34]: 3 (Herbicidal rate of 40% or more and less than 70%) | herbicidal effect on D (Chinese sprangletop), rating 0-5 ([14]; 272 g/ha): 2 (Herbicidal rate of 20% or more and less than 40%) | herbicidal effect grade, K: Italian ryegrass [15, 34]: 4 (Herbicidal rate of 70% or more and less than 90%) | herbicidal effect rating, H: barnyard grass [16, 33]: 4 (Herbicidal rate of 70% or more and less than 90%) | herbicidal effect on E (rice flat sedge), rating 0-5 ([17]; 272 g/ha): 5 (Herbicidal rate of 90% or more (almost completely withered)) | herbicidal effect grade, I: wild oat [18, 34]: 5 (Herbicidal rate of 90% or more (almost completely withered)) | herbicidal effect rating, P: chickweed [19, 33]: 5 (Herbicidal rate of 90% or more (almost completely withered)) | herbicidal effect grade, P: chickweed [20, 34]: 5 (Herbicidal rate of 90% or more (almost completely withered)) | herbicidal effect rating, I: wild oat [21, 33]: 3 (Herbicidal rate of 40% or more and less than 70%) | herbicidal effect grade, R: persian speedwell [22, 34]: 4 (Herbicidal rate of 70% or more and less than 90%) | herbicidal effect grade, J: blackgrass [23, 34]: 5 (Herbicidal rate of 90% or more (almost completely withered)) | herbicidal effect grade, H: barnyard grass [24, 34]: 4 (Herbicidal rate of 70% or more and less than 90%) | herbicidal effect rating, L: windgrass [25, 33]: 3 (Herbicidal rate of 40% or more and less than 70%) | herbicidal effect rating, R: persian speedwell [26, 33]: 5 (Herbicidal rate of 90% or more (almost completely withered)) | herbicidal effect grade, L: windgrass [27, 34]: 5 (Herbicidal rate of 90% or more (almost completely withered)) | Herbicidal effect on C: oval-leafed pondweed (grade 0-5) ([28]; 272 g/ha applied herbicide): 0 (Herbicidal rate of 5% or less (almost no effect)) | herbicidal effect grade, G: green foxtail [29, 34]: 4 (Herbicidal rate of 70% or more and less than 90%) | herbicidal effect grade, F: southern crabgrass [30, 34]: 4 (Herbicidal rate of 70% or more and less than 90%)
